# Results as given in article PMC3779320, “Bub3 reads phosphorylated MELT repeats to promote spindle assembly checkpoint signaling” (eLife, 2013).
# Square brackets hold non-standard residues; d marks the D form. Peptide text beside a SMILES is read from it. pT = C[C@@H](OP(=O)(O)O)[C@H](N)C(=O)O
# Assays:
# [1] = system: Bub1^289–359–Bub3^R217A–R239A; assay: ITC binding to Bub1^289–359–Bub3^R217A–R239A double mutant; parameters: species or system Saccharomyces cerevisiae; settings: 25°C, 20 mM Tris pH7.5, 150 mM NaCl, 1 mM DTE, complex 30 µM in cell, peptide 400 µM
# Text: Because the presence of a phosphate on Thr172^Spc105/Knl1 is essential for high-affinity binding of ScBub1^289–359–Bub3 to MELT^P peptides (Figure 1), we concentrated our mutational analysis on two residues that are directly implicated in the recognition of the peptide’s phospho-threonine, Arg217^Bub3 and Arg239^Bub3. Positively charged residues are invariant at these positions of the Bub3 alignment (Figure 2C). We generated single or double alanine mutants of Arg217^Bub3 and Arg239^Bub3 in the context of ScBub1^289–359–Bub3 and tested their binding affinity for the MELT2^P peptide by ITC.
# cDNA sequences coding for S. cerevisiae Bub1^289–359 and for full length Bub3 were subcloned in the first and second cassettes of pGEX-6P-2rbs vector ([Ciferri et al., 2005]). In this construct, the cDNA encoding Bub1^289–359 was sub-cloned in frame with the gene encoding GST and a cleavage site for PreScission protease, and was translated from the first ribosome-binding site (rbs). Untagged Bub3 was subcloned downstream of the second rbs in the same vector. Expression was carried out in BL21 DE3 plysS cells in LB medium by auto-induction with 0.3% lactose at 18°C for approximately 16 hr. […]
# (§1) Binding isotherm was measured at 25°C by isothermal titration calorimetry on a MicroCal ITC200 device (GE Healthcare, Piscataway, NJ). […]
# Bub1^289–359–Bub3 = molecular target: T1, Bub1^289–359–Bub3 (Saccharomyces cerevisiae, UniProt P26449+P41695); assay: ITC binding of MELT peptides to Bub1^289–359–Bub3 (wild type); settings: 25°C, 20 mM Tris pH7.5, 150 mM NaCl, 1 mM DTE, complex 30 µM in cell, peptide 400 µM
# T1 construct: S. cerevisiae Bub1^289–359 and for full length Bub3; GST (N, cleaved yes); made in house; host or cells: E. coli BL21 DE3 plysS
# T1 sequence (P26449 1-341): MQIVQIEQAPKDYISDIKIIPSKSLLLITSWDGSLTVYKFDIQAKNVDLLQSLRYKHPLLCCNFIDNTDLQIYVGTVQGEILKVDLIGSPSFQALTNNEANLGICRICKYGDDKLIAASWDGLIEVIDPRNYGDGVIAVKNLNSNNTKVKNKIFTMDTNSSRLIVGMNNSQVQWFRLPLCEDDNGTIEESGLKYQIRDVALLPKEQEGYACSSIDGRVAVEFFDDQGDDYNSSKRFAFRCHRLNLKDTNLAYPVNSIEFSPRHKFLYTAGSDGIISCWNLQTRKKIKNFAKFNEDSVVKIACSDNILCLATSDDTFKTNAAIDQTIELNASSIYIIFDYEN
# T1 sequence (P41695 289-359): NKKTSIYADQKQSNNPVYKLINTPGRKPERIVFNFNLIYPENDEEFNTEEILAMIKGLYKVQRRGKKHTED
# Text: We generated recombinant ScBub1^289–359–Bub3 (where the Bub1 segment is equivalent to the minimal kinetochore targeting region of human Bub1 [[Krenn et al., 2012]]) by bacterial co-expression and purified it to homogeneity (Figure 1D). To assess whether Bub1–Bub3 binds directly to MELT^P sequences, we tested its ability to bind MELT sequences in quantitative isothermal titration calorimetry (ITC) binding experiments. 19-residue synthetic peptides encompassing the sequences of the second and fourth MELT^P motifs of Spc105/Knl1 (indicated as MELT2 and MELT4, respectively), each flanked by four and eleven residues on the N- and C-terminal ends, respectively, were tested (Figure 1C). […] Thus, ScBub1^289–359–Bub3 is sufficient for the reconstitution of tight interactions with two MELT^P peptides in vitro that recapitulate a salient feature of this interaction, its dependency on phosphorylation.
# cDNA sequences coding for S. cerevisiae Bub1^289–359 and for full length Bub3 were subcloned in the first and second cassettes of pGEX-6P-2rbs vector ([Ciferri et al., 2005]). In this construct, the cDNA encoding Bub1^289–359 was sub-cloned in frame with the gene encoding GST and a cleavage site for PreScission protease, and was translated from the first ribosome-binding site (rbs). Untagged Bub3 was subcloned downstream of the second rbs in the same vector. Expression was carried out in BL21 DE3 plysS cells in LB medium by auto-induction with 0.3% lactose at 18°C for approximately 16 hr. Cells were harvested by centrifugation and resuspended in Buffer A (20 mM Tris pH 7.5, 300 mM NaCl, 10% Glycerol, 1 mM DTE, 1 mM EDTA pH 8.0, 1 mM PMSF) typically at a dilution of 3 ml lysis buffer per ml of bacterial pellet. Cells were lysed by sonication, and the lysates were cleared by centrifugation at 75000 × g for 45 min. The resulting clear supernatant was incubated with gentle rotation with 1/50 (vol/vol) of GSH-sepharose slurry (GE Healthcare) for 1–2 hr at 4°C. Beads were washed with 150 vol of Buffer A. To elute the Bub1–Bub3 complex from beads, GST-PreScission protease (0.02 mg/mg of protein target) was added for 16 hr at 4°C. The eluate was concentrated on Amicon Ultra Centrifugal Filters MwCO 3000 (Merck Millipore, Billerica, MA) and further purified by size exclusion chromatography (SEC) on a Superdex 75 16/60 column using GF buffer (20 mM Tris pH 7.5, 150 mM NaCl, 1 mM DTE). The complex eluted in a single peak with apparently stoichiometric amounts of Bub1^289–359 and Bub3 and was subsequently concentrated to ∼10 mg/ml for crystallization or to 2–4 mg/ml for ITC experiments. […]
# as §1
structure (smiles),measurement,setting,value
CC[C@H](C)[C@H](NC(=O)[C@H](CO)NC(=O)[C@H](CCCNC(=N)N)NC(=O)[C@@H]1CCCN1C(=O)[C@H](Cc1ccccc1)NC(=O)[C@@H](NC(=O)[C@H](CCC(=O)O)NC(=O)[C@@H](NC(=O)[C@H](CCSC)NC(=O)[C@H](CCC(=O)O)NC(=O)[C@H](CCSC)NC(=O)[C@H](CO)NC(=O)[C@@H](NC(=O)[C@@H]1CCCN1C(=O)[C@H](CC(=O)O)NC(C)=O)[C@@H](C)O)[C@@H](C)OP(=O)(O)O)C(C)C)C(=O)N[C@@H](CCCNC(=N)N)C(=O)N[C@@H](CCC(N)=O)C(=O)N[C@@H](CCCCN)C(=O)N[C@@H](CC(N)=O)C(N)=O [MELT2^P] (Ac-DPTSMEM[pT]EVFPRSIRQKN-NH2; N-terminus and C-terminus assumed),binding (in words),[1],no significant residual binding
same,binding (in words),Bub1^289–359–Bub3,no binding
